Data as given in patent US12590118B2, “Salt and crystal form of steroid derivative regulator” (Shanghai Hansoh Biomedical Co., Ltd., priority 2019, dated 2026).

Columns and labels:
[1] = target: GABA-A receptor; test: 35S-TBPS binding assay (GABAA receptor binding ability assay); design: species or system Sprague-Dawley rat; conditions: rat cerebral cortex cell membrane, 5 μM GABA, 2 nM 35S-TBPS; read-out: IC50 on inhibiting the TBPS binding activity, 35S-TBPS bindng assay
Procedure: 1. The cerebral cortex of male Sprague-Dawley rat was isolated.
2. A pre-chilled 0.32 M sucrose solution (one tablet of protease inhibitor was added per 100 mL) was added to the cerebral cortex (the volume of sucrose solution was 10 times the volume of the cerebral cortex). The mixture was crushed with a 50 mL glass tissue homogenizer in batches and mixed well.
3. The mixture was centrifuged at 1,500 g, 4° C. for 10 minutes, and the supernatant was collected.
4. The mixture was centrifuged at 20,000 g, 4° C. for 30 minutes, and the supernatant was discarded.
5. The precipitate was resuspended with the pre-chilled phosphate buffer saline (PBS) (one tablet of protease inhibitor was added per 100 mL). An average of 4 mL of PBS was added per rat, and the mixture was mixed well with a glass tissue homogenizer.
6. The mixture was centrifuged at 10,000 g, 4° C. for 10 minutes, and the supernatant was discarded.
7. Steps 5 and 6 were repeated three times.
8. Finally, the precipitate was resuspended with 4 volumes of PBS. The resulting solution was dispensed, frozen in liquid nitrogen, and stored at −80° C.
9. The protein concentration was measured by the bicinchoninic acid (BCA) method.
1. 230 μL of PBS was added to each well of a well plate with 1.1 mL volume.
2. 60 μL of the cerebral cortex cell membrane (5 μg/μL) solution was added to each well, and the mixture was mixed well.
3. The test compound (3 μL per well) was added, and the plate was incubated at 25° C. for 5 minutes. The DMSO concentration was 1%. The initial compound concentration was […], and a
3-fold dilution in gradient was carried out to obtain a total of 8 gradients and 2 replicates. 1% DMSO was used as a negative control, and 10 μM P026-2 was used as a positive control.
4. GABA was added at a final concentration of 5 μM, and incubated at 25° C. for 5 minutes. 1 mM GABA solution was formulated, and 1.5 μL of the solution was added to each well.
5. 35S-TBPS was added at a final concentration of 2 nM. The concentration of isotope mother solution was 9.7 μM. After dilution with PBS for 100 times, 6 μL of the diluted isotope solution was added to each well.
6. The plate was incubated at 4° C. for 20 hours.
7. The FilterMate GF/C plate was pre-treated with 0.5% PEI, and incubated at 4° C. for 1 hour.
8. The FilterMate GF/C plate was washed with Universal Harvester twice, 50 mL PBS each time.
9. The reaction solution was transferred to the GF/C plate, and each well was washed 4 times with 900 μL of PBS.
10. The washed GF/C plate was placed at 55° C. and dried for 10 minutes.
11. 40 μL of scintillation solution was added to each well, and the CPM value was read with TopCount.
In the experiment, the CPM (counts per minute) value was read with TopCount. According to the readings of the High control (DMSO) and the Low control (10 μM of the positive compound) experimental groups, the % inhibition was calculated based on the following formula: % Inhibition=100×(CPMHigh control−CPMsample)/(CPMHigh control−CPMLow control)
The IC50 of the compound was calculated according to the following 4-parameter nonlinear logic formula: Y=Bottom+(Top−Bottom)/(1+10^((Log IC50−X)*HillSlope)),
wherein: • X represents the log of compound concentration, • Y represents the % Inhibition.
The effect of the compound of the present invention on the TBPS binding activity was determined by the above test, and the measured IC50 values are shown in Table 5.

[2] = test system: ICR mice; test: Forced swimming model in mice; assay type: in vivo; conditions: for Mean (immobility, %): floating time/240 s; for Mean (immobility, s): latter four minutes of 6 min swim; for immobility time during the latter four minutes compared with that of the model group: forced swimming, ICR mice
Procedure: The antidepressant effect of the compound was evaluated by the forced swimming model in mice.
Compounds of Examples 1 to 3, Example 9, Example 40, Example 41, Examples 48 to 52, Example 90 and Example 98 of the present invention, prepared by the applicant.
Male ICR mice (25-35 g) were adapted in the experiment environment for 3 days before the forced swimming test.
According to the experiment design, the mice were randomly grouped on the day before the experiment according to body weight, with 12 mice in each group. Before the test, the compounds of each example were administered intragastrically according to the Tmax thereof in the brain in mice pharmacokinetic experiment.
Respectively: • 1) Model group (0.5% CMC-Na-1% Tween 80 solution, p.o., 10 mL/kg); • 2) Compounds of Examples 1 to 3, Example 40, Example 41, Examples 48 to 51, Example 90 and Example 98 (10 mg/kg, p.o., 10 mL/kg); Example 9 and Example 52 (5 mg/kg, p.o., 5 mL/kg).
When being administered, the compounds of each example were suspended in 0.5% CMC-Na+1% Tween 80 solution to the desired concentration.
0.5-1 hour after administration, ICR mice were placed in a forced swimming device (transparent glass drum (water depth 18 cm, water temperature 25-26° C.), one mouse per tank) and forced to swim for 6 minutes. The forced swimming device recorded the floating time of the ICR mice during the entire 6 minutes, and the data of the latter four minutes were used for data analysis. The mice were taken out immediately after the swimming experiment, wiped dry and put back in their original cages.
Note: The criterion for determining the immobility time is that the mouse stops struggling in water and floats, and there are only slight limb movements to keep the head floating on the water.
3.4 Data Analysis Floating time percentage=100*floating time/240 s.

[3] = target: T1, human GABAA receptor α1, β2 and γ2 subunit (HEK293T cell line) (Homo sapiens, UniProt P14867+P47870); test: Positive regulatory effect on GABAA receptor, manual patch clamp; assay type: cell-based; conditions: whole-cell current, 1 μM GABA
T1 construct: expressed in transfected cells
Procedure: The objective of this test example is to determine the positive regulatory effect of the compound on GABAA receptor by the electrophysiological manual patch clamp method.
Manual patch clamp system HEKA EPC10 USB signal amplifier and digital conversion system (purchased from HEKA Electronics, Germany), centrifuge (Eppendorf, etc.), carbon dioxide incubator (purchased from Thermo, etc.), biological safety cabinet (Thermo, etc.), pipette (purchased from Eppendorf, etc.).
The cells were grown in a culture dish with DMEM medium (purchased from Invitrogen), and cultured in an incubator at 37° C. and 5% CO2. Before the electrophysiological experiment, the cells were transferred to a round glass slide placed in the culture dish, and grown in the same culture medium and under the same culture condition as above. The density of cells on each round glass slide should meet the requirement that most cells were independent and individual.
Each test compound was diluted in gradient with DMSO to obtain a stock solution, which was then diluted with extracellular fluid by 1,000-fold to obtain the final test concentration. The final concentration of DMSO in the compound solution with each concentration was 0.1%. The experiment used the manual patch clamp system HEKA EPC10 USB signal amplifier and digital conversion system for whole cell current recording. The round glass slide with HEK293T GABAA cells grown on the surface was taken out of the culture dish, and placed in the electrophysiological recording tank under the inverted microscope. The recording tank was continuously perfused with extracellular fluid. During the experiment, the whole-cell current recording technology was used to record the chloride current of the GABAA channel. 1 μM GABA was used to activate the chloride current of the GABAA channel of each cell as an initial control. 1 μM GABA acted on the cell through the drug perfusion system to induce the chloride current of the GABAA channel, the action time was about 3 to 5 seconds, and the current value was used as the initial control value. The test concentration of compound was perfused and incubated for 2 to 5 minutes. […] GABA solution (mixed with the test concentration of compound) was given to the cells to observe the enhancement effect of the test compound on the current induced by 1 μM GABA. When the cell state was stable, the test compound acted on the same cell from low to high concentration to record the enhancement effect of the induced current.
The experimental data was analyzed by HEKA Patchmaster, Microsoft Excel and the data analysis software provided by Graphpad Prism.

T1 sequence (P14867 28-456): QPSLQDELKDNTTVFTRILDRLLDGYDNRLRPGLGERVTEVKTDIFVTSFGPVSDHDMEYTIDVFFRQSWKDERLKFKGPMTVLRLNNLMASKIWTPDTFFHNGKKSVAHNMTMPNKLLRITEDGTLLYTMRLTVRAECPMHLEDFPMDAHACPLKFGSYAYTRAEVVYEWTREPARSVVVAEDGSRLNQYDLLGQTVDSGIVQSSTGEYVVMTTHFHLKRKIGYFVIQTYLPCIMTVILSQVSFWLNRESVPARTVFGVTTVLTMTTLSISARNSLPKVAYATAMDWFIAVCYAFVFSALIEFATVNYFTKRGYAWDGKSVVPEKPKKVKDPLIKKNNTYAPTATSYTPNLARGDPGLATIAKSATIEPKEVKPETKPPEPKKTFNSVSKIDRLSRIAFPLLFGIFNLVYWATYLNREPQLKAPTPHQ
T1 sequence (P47870 25-512 limits assumed): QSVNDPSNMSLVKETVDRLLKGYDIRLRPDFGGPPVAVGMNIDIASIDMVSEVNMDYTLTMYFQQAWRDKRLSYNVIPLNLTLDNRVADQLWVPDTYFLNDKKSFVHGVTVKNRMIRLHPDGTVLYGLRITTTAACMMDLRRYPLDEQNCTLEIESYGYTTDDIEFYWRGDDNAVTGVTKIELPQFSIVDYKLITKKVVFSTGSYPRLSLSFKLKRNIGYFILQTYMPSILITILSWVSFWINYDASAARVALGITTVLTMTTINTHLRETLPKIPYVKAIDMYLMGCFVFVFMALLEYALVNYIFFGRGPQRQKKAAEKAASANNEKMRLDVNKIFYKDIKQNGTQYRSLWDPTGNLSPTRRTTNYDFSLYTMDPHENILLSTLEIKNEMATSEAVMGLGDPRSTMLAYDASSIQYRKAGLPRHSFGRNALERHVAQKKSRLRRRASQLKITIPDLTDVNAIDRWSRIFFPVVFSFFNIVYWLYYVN
T1 sequence (P18507 40-475 partner): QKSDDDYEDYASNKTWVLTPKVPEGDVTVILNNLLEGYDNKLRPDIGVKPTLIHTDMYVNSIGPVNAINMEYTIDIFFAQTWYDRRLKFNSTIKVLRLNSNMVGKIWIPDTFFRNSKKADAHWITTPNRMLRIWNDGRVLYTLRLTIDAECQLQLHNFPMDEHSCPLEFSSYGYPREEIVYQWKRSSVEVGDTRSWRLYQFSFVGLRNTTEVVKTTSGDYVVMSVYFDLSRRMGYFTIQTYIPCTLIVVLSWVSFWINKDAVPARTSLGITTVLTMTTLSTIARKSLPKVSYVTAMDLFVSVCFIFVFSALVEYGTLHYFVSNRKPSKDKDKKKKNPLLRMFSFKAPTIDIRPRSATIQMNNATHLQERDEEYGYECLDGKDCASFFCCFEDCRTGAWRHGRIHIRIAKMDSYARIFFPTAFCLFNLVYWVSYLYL

Compound	IC50 [1] [nM]	Mean (immobility, %) ([2]; dose 10 mpk p.o.) [%]	Mean (immobility, s) ([2]; dose 10 mpk p.o.) [s]	immobility time during the latter four minutes compared with that of the model group [2]	Mean (immobility, %) ([2]; dose 5 mpk p.o.) [%]	Mean (immobility, s) ([2]; dose 5 mpk p.o.) [s]	EC50 [3] [nM]
C[C@@]1(O)CC[C@H]2[C@H](CC[C@@H]3[C@@H]2CC[C@@]2(C)[C@H]3[C@@H]3C[C@@H]3[C@@H]2C(=O)Cn2cc(C#N)cn2)C1 [Example 1, 1-(2-((2R,4aS,4bR,6aS,7S,7aS,8aR,8bR,8cR,10aR)-2-hydroxy-2,6a-dimethyloctadecahydrocyclopropa[4,5]cyclopenta[1,2-a]phenanthren-7-yl)-2-oxoethyl)-1H-pyrazole-4-carbonitrile]	24.3	54.26	130.22				
C[C@@]1(O)CC[C@H]2[C@H](CC[C@@H]3[C@@H]2CC[C@@]2(C)[C@H]3[C@@H]3C[C@@H]3[C@@H]2C(=O)Cn2cc(C(F)(F)F)cn2)C1 [Example 3, 1-((2R,4aS,4bR,6aS,7S,7aS,8aR,8bR,8cR,10aR)-2-Hydroxy-2,6a-dimethyloctadecahydrocyclopropa[4,5]cyclopenta[1,2-a]phenanthren-7-yl)-2-(4-(trifluoromethyl)-1H-pyrazol-1-yl)ethan-1-one]	13.5	59.93	143.81				
C[C@@]1(O)CC[C@H]2[C@H](CC[C@@H]3[C@@H]2CC[C@]2(C)C(C(=O)Cn4cc(C#N)cn4)C[C@@H](C4CC4)[C@@H]32)C1 (stereo partly drawn) [Example 48, 1-(2-((3R,5R,8R,9R,10S,13S,14S,15S)-15-Cyclopropyl-3-hydroxy-3,13-dimethylhexadecahydro-1H-cyclopenta[a]phenanthren-17-yl)-2-oxoethyl)-1H-pyrazole-4-carbonitrile]	7.5	55.92	134.21				
C[C@@]1(O)CC[C@H]2[C@H](CC[C@@H]3[C@@H]2CC[C@@]2(C)[C@H]3[C@H](C3CC3)C[C@@H]2C(=O)Cn2nccn2)C1 [Example 50, 1-((3R,5R,8R,9R,10S,13S,14S,15S,17S)-15-Cyclopropyl-3-hydroxy-3,13-dimethylhexadecahydro-1H-cyclopenta[a]phenanthren-17-yl)-2-(2H-1,2,3-triazol-2-yl)ethan-1-one]		29.57	70.96	very significantly different			
C[C@@]1(O)CC[C@H]2[C@H](CC[C@@H]3[C@@H]2CC[C@@]2(C)[C@H]3[C@H](C3CC3)C[C@@H]2C(=O)Cn2ccnn2)C1 [Example 51, 1-((3R,5R,8R,9R,10S,13S,14S,15S,17S)-15-Cyclopropyl-3-hydroxy-3,13-dimethylhexadecahydro-1H-cyclopenta[a]phenanthren-17-yl)-2-(1H-1,2,3-triazol-1-yl)ethan-1-one]					30.72	73.72	
C[C@@H]1C[C@H](C(=O)Cn2ccc(C(F)(F)F)n2)[C@@]2(C)CC[C@H]3[C@@H](CC[C@@H]4C[C@](C)(O)CC[C@@H]43)[C@H]12 [Example 86, 1-((3R,5R,8R,9R,10S,13S,14S,15R,17S)-3-Hydroxy-3,13,15-trimethylhexadecahydro-1H-cyclopenta[a]phenanthren-17-yl)-2-(3-(trifluoromethyl)-1H-pyrazol-1-yl)ethan-1-one]	8						74
CC[C@@H]1C[C@H](C(=O)Cn2ccc(C#N)n2)[C@@]2(C)CC[C@H]3[C@@H](CC[C@@H]4C[C@](C)(O)CC[C@@H]43)[C@H]12 [Example 90, 1-(2-((3R,5R,8R,9R,10S,13S,14S,15R,17S)-15-Ethyl-3-hydroxy-3,13-dimethylhexadecahydro-1H-cyclopenta[a]phenanthren-17-yl)-2-oxoethyl)-1H-pyrazole-3-carbonitrile]	16.2	36.92	88.61	very significantly different			
C[C@@]1(O)CC[C@H]2[C@H](CC[C@@H]3[C@@H]2CC[C@@]2(C)[C@H]3[C@H](C3CC3)C[C@@H]2C(=O)Cn2ncnn2)C1 [Example 98, 1-((3R,5R,8R,9R,10S,13S,14S,15S,17S)-15-Cyclopropyl-3-hydroxy-3,13-dimethylhexadecahydro-1H-cyclopenta[a]phenanthren-17-yl)-2-(2H-tetrazol-2-yl)ethan-1-one]	21.4			very significantly different	33.54	80.5	
